# Measurements as given in ChEMBL document CHEMBL3763120, “Phenyl Benzenesulfonylhydrazides Exhibit Selective Indoleamine 2,3-Dioxygenase Inhibition with Potent in Vivo Pharmacodynamic Activity and Antitumor Efficacy” (J Med Chem, 2016).
# What was measured:
# [1] = test system: Mus musculus; test: Decrease in ratio of kynurenine to tryptophan in C57BL/6 mouse at 50 mg/kg, po after 5 hrs by LC-MS/MS analysis; format: functional; details: C57BL/6, po
# [2] = target: D(2) dopamine receptor (Homo sapiens) (UniProt P14416); test: Inhibition of Dopamine D2S receptor (unknown origin) at 10 uM
# Sequence of D(2) dopamine receptor (Homo sapiens) (P14416 whole entry): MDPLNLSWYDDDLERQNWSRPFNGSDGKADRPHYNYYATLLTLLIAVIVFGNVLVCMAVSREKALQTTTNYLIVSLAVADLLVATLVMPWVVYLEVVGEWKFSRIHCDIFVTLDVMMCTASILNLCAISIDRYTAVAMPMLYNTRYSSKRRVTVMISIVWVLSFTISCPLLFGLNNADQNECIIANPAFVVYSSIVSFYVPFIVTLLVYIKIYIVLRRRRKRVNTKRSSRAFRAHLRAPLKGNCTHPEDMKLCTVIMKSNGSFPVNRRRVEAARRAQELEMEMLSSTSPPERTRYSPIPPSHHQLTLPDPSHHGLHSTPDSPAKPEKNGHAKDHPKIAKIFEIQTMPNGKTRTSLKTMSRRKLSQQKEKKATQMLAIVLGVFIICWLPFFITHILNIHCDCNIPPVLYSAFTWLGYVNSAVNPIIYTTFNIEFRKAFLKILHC
# [3] = species on record: Homo sapiens; test: Inhibition of Purinergic P2Y receptor (unknown origin) at 10 uM
# [4] = target: Acetylcholine receptor subunit alpha (Homo sapiens) (UniProt P02708); test: Inhibition of Nicotinic acetylcholine alpha1 bungarotoxin binding site (unknown origin) at 10 uM
# [5] = species on record: Homo sapiens; test: Inhibition of Nicotinic acetylcholine receptor (unknown origin) at 10 uM
# [6] = target: Muscarinic acetylcholine receptor M1 (Homo sapiens) (UniProt P11229); test: Inhibition of Muscarinic M1 receptor (unknown origin) at 10 uM
# Sequence of Muscarinic acetylcholine receptor M1 (Homo sapiens) (P11229 whole entry): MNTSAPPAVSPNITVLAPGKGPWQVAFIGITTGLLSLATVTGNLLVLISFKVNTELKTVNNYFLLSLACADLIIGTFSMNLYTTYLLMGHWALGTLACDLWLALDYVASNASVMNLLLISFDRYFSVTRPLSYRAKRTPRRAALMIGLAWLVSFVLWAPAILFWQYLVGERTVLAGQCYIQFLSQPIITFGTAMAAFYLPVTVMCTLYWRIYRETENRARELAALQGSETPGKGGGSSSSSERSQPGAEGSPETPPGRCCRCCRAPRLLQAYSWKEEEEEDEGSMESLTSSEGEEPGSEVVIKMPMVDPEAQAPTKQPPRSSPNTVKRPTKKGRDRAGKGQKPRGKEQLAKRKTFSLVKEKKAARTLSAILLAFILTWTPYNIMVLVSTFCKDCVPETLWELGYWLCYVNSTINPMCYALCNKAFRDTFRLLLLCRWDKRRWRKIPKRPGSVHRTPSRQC
# [7] = target: Cysteinyl leukotriene receptor 1 (Homo sapiens) (UniProt Q9Y271); test: Inhibition of CysLT1 receptor (unknown origin) at 10 uM
# Sequence of Cysteinyl leukotriene receptor 1 (Homo sapiens) (Q9Y271 whole entry): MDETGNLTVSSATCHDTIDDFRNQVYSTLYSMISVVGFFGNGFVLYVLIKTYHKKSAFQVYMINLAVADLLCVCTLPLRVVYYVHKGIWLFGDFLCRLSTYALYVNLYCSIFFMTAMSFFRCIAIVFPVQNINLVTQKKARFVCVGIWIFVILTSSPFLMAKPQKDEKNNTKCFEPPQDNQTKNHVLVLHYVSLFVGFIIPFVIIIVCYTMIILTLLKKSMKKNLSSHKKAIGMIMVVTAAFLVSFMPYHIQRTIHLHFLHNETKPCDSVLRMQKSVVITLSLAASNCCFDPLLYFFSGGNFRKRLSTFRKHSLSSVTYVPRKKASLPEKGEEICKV
# [8] = target: Alpha-2A adrenergic receptor (Homo sapiens) (UniProt P08913); test: Inhibition of Adrenergic alpha2A receptor (unknown origin) at 10 uM
# Sequence of Alpha-2A adrenergic receptor (Homo sapiens) (P08913 whole entry): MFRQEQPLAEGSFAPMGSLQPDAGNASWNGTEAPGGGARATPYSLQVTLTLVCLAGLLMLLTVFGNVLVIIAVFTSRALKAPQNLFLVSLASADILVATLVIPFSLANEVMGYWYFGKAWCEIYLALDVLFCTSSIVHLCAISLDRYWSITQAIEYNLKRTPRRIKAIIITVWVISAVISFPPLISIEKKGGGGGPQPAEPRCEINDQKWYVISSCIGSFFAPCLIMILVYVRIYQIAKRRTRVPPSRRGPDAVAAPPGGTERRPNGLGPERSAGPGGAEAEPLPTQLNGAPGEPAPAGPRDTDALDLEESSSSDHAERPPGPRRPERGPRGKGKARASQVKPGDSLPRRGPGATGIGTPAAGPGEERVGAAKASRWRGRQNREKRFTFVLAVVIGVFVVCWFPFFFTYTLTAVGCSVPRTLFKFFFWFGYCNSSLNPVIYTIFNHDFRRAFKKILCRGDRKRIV
# [9] = Volume of distribution at steady state in Sprague-Dawley rat plasma at 2 mg/kg, iv by LC-MS/MS analysis; format: ADME, organism-based; details: Sprague-Dawley, plasma, read-out: Vdss
# [10] = Cmax in Sprague-Dawley rat plasma at 10 mg/kg, po by LC-MS/MS analysis; format: ADME, organism-based; parameters: dose 10 mg/kg, route oral
# [11] = target: 5-hydroxytryptamine receptor 1A (Homo sapiens) (UniProt P08908); test: Inhibition of 5HT-1A (unknown origin) at 10 uM
# Sequence of 5-hydroxytryptamine receptor 1A (Homo sapiens) (P08908 whole entry): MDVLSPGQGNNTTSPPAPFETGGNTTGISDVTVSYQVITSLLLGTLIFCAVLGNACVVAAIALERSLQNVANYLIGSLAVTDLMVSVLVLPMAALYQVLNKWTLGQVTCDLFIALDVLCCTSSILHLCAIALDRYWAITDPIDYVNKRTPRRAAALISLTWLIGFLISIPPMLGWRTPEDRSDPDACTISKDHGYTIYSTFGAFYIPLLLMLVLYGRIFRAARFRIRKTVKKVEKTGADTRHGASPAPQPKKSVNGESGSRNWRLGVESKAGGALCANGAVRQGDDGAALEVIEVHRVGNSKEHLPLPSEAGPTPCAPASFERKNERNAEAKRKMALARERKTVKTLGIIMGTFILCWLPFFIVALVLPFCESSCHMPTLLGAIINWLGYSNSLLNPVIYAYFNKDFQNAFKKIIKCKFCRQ
# [12] = target: Alpha-1B adrenergic receptor (Homo sapiens) (UniProt P35368); test: Inhibition of Adrenergic alpha1B receptor (unknown origin) at 10 uM
# Sequence of Alpha-1B adrenergic receptor (Homo sapiens) (P35368 whole entry): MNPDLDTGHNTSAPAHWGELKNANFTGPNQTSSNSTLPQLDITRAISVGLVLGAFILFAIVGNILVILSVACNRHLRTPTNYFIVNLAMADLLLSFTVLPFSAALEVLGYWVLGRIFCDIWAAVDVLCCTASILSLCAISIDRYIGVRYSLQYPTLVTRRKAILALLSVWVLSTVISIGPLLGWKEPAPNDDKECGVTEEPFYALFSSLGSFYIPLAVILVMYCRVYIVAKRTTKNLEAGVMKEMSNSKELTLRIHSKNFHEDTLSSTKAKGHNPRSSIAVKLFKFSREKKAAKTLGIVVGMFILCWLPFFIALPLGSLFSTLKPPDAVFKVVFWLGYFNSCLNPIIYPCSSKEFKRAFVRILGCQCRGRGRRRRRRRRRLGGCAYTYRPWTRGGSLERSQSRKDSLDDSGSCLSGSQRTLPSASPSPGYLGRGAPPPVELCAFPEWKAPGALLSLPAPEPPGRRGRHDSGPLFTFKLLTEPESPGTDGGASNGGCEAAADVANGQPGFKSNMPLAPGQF
# [13] = Half life in Sprague-Dawley rat plasma at 10 mg/kg, po by LC-MS/MS analysis; format: ADME, organism-based
# [14] = target: Interleukin-1 receptor type 1 (Homo sapiens) (UniProt P14778); test: Inhibition of IL-1 receptor (unknown origin) at 10 uM
# [15] = target: T1, Glutamate [NMDA] receptor (Homo sapiens) (UniProt Q05586+Q12879+Q13224+O15399+O60391+Q14957+Q8TCU5); test: Inhibition of NMDA receptor phencyclidine binding site (unknown origin) at 10 uM
# [16] = target: Sodium-dependent dopamine transporter (Homo sapiens) (UniProt Q01959); test: Inhibition of DAT (unknown origin) at 10 uM
# Sequence of Sodium-dependent dopamine transporter (Homo sapiens) (Q01959 whole entry): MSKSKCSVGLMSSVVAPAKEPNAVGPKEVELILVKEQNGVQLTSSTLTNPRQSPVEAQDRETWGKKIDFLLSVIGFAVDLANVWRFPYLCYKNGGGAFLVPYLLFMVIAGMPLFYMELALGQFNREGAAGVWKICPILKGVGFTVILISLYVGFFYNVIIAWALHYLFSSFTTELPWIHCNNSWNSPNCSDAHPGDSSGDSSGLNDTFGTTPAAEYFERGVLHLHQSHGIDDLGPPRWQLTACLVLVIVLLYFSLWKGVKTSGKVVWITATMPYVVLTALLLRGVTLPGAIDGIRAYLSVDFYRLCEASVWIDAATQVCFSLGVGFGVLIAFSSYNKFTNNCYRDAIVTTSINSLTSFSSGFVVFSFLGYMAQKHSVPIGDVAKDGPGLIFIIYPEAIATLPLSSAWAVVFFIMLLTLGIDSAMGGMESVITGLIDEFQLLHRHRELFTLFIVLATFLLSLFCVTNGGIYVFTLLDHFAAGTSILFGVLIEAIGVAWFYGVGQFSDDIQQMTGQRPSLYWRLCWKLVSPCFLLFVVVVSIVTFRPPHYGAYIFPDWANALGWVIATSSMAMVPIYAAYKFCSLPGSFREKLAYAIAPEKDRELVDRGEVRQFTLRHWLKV
# [17] = species on record: Homo sapiens; test: Inhibition of Glutamate kainate receptor (unknown origin) at 10 uM
# [18] = target: 5-hydroxytryptamine receptor 2B (Homo sapiens) (UniProt P41595); test: Inhibition of 5-HT2B receptor (unknown origin) at 10 uM
# [19] = target: Alpha-1D adrenergic receptor (Homo sapiens) (UniProt P25100); test: Inhibition of Adrenergic alpha1D receptor (unknown origin) at 10 uM
# [20] = target: Endothelin-1 receptor (Homo sapiens) (UniProt P25101); test: Inhibition of ETA receptor (unknown origin) at 10 uM
# Sequence of Endothelin-1 receptor (Homo sapiens) (P25101 whole entry): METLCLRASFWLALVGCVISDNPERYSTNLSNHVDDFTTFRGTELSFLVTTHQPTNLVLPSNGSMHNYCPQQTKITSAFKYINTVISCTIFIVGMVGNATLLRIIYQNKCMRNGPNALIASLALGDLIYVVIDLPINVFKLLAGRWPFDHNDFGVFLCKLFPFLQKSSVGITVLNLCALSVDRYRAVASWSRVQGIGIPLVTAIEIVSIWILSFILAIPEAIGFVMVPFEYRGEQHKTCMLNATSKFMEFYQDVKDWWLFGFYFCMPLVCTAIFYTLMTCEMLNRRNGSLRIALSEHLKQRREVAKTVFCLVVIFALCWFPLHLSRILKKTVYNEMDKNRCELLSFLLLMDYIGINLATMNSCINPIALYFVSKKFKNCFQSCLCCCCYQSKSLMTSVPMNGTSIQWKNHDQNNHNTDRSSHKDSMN
# [21] = target: Substance-P receptor (Homo sapiens) (UniProt P25103); test: Inhibition of Tachykinin NK1 receptor (unknown origin) at 10 uM
# Sequence of Substance-P receptor (Homo sapiens) (P25103 whole entry): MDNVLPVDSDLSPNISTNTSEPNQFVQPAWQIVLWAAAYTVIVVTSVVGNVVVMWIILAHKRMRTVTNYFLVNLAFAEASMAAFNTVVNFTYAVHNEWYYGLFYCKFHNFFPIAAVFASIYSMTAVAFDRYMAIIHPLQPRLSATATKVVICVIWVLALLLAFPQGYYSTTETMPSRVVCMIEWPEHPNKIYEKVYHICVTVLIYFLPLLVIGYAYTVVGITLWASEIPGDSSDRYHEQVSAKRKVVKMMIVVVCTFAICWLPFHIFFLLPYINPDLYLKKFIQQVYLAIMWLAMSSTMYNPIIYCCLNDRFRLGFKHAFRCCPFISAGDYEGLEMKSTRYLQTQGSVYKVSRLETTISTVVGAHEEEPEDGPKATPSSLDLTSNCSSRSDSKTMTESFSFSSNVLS
# [22] = target: Prostaglandin E2 receptor EP4 subtype (Homo sapiens) (UniProt P35408); test: Inhibition of Prostaglandin E2 receptor EP4 (unknown origin) at 10 uM
# [23] = target: Endothelin receptor type B (Homo sapiens) (UniProt P24530); test: Inhibition of ETB receptor (unknown origin) at 10 uM
# [24] = target: Histamine H3 receptor (Homo sapiens) (UniProt Q9Y5N1); test: Inhibition of Histamine H3 receptor (unknown origin) at 10 uM
# [25] = target: T1, Glutamate [NMDA] receptor (Homo sapiens); test: Inhibition of NMDA receptor agonist binding site (unknown origin) at 10 uM
# [26] = target: Sodium- and chloride-dependent GABA transporter 1 (Homo sapiens) (UniProt P30531); test: Inhibition of GABA transporter (unknown origin) at 10 uM
# [27] = species on record: Homo sapiens; test: Inhibition of Phorbol ester receptor (unknown origin) at 10 uM
# [28] = target: Alpha-1A adrenergic receptor (Homo sapiens) (UniProt P35348); test: Inhibition of Adrenergic alpha1A receptor (unknown origin) at 10 uM
# [29] = target: Sodium-dependent noradrenaline transporter (Homo sapiens) (UniProt P23975); test: Inhibition of Norepinephrine transporter (unknown origin) at 10 uM
# [30] = target: B2 bradykinin receptor (Homo sapiens) (UniProt P30411); test: Inhibition of Bradykinin B2 receptor (unknown origin) at 10 uM
# [31] = target: Histamine H2 receptor (Homo sapiens) (UniProt P25021); test: Inhibition of Histamine H2 receptor (unknown origin) at 10 uM
# [32] = AUC (0 to infinity) in Sprague-Dawley rat plasma at 10 mg/kg, po by LC-MS/MS analysis; format: ADME, organism-based; parameters: dose 10 mg/kg, route oral, time infinity
# [33] = species on record: Homo sapiens; test: Inhibition of N-type calcium channel (unknown origin) at 10 uM
# [34] = Oral bioavailability in Sprague-Dawley rat plasma at 10 mg/kg by LC-MS/MS analysis; format: ADME, organism-based
# [35] = target: Beta-2 adrenergic receptor (Homo sapiens) (UniProt P07550); test: Inhibition of Adrenergic beta2 receptor (unknown origin) at 10 uM
# [36] = AUC (0 to infinity) in Sprague-Dawley rat plasma at 2 mg/kg, iv by LC-MS/MS analysis; format: ADME, organism-based; parameters: dose 2 mg/kg, route intravenous, time infinity
# [37] = target: Neuropeptide Y receptor type 2 (Homo sapiens) (UniProt P49146); test: Inhibition of Neuropeptide Y2 receptor (unknown origin) at 10 uM
# Sequence of Neuropeptide Y receptor type 2 (Homo sapiens) (P49146 whole entry): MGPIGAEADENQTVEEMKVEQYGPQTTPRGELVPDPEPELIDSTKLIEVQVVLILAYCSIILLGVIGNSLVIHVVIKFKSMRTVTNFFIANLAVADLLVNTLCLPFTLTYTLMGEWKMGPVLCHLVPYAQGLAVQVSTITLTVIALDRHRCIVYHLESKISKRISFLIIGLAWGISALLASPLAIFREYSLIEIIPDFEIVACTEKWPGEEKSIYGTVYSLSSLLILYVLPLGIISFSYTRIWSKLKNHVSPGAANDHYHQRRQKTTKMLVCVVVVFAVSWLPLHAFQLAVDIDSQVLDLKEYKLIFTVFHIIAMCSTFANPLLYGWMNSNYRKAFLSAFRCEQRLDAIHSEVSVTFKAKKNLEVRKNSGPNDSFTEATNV
# [38] = Clearance in Sprague-Dawley rat plasma at 2 mg/kg, iv by LC-MS/MS analysis; format: ADME, organism-based
# [39] = target: Adenosine receptor A2a (Homo sapiens) (UniProt P29274); test: Inhibition of Adenosine A2A receptor (unknown origin) at 10 uM
# [40] = target: Indoleamine 2,3-dioxygenase 1 (Homo sapiens, UniProt P14902); test: Inhibition of Indoleamine 2,3-dioxygenase in human HeLa cells in presence of L-tryptophan as substrate after 24 hrs in presence of L-tryptophan; format: cell-based
# [41] = test system: Mus musculus; test: Toxicity in BalB/c mouse xenografted with CT26 cells assessed as change in body weight at 100 to 400 mg/kg, po bid for 22 days; format: organism-based; details: in vivo, 528 h
# [42] = test system: CT26; test: Antitumor activity against mouse CT26 cells xenografted in Balb/c mouse assessed as tumor growth delay at 200 mg/kg, po bid for 22 days; format: functional; details: 528 h, read-out: TGI
# [43] = target: 5-hydroxytryptamine receptor 3A (Homo sapiens) (UniProt P46098); test: Inhibition of 5HT3 receptor (unknown origin) at 10 uM
# Sequence of 5-hydroxytryptamine receptor 3A (Homo sapiens) (P46098 whole entry): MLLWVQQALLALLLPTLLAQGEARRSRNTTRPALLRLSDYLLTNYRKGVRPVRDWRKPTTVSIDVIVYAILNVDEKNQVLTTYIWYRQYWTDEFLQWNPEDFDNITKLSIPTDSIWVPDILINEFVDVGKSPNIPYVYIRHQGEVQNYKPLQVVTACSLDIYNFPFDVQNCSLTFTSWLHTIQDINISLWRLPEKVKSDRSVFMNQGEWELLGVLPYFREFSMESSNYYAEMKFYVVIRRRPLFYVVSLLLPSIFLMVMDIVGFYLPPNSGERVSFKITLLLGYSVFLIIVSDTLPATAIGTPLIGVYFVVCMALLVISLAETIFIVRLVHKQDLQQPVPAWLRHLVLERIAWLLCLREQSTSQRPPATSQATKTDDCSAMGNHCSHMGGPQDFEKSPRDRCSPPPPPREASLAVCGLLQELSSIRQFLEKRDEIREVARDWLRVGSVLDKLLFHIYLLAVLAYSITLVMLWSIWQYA
# [44] = target: Cannabinoid receptor 1 (Homo sapiens) (UniProt P21554); test: Inhibition of CB1 receptor (unknown origin) at 10 uM
# [45] = species on record: Homo sapiens; test: Inhibition of Platelet-activating factor (unknown origin) at 10 uM
smiles,measurement,setting,value
O=C1Cc2cc(S(=O)(=O)NNc3ccc(Br)cc3)ccc2N1,inhibition in vivo at 50 mg/kg,[1],42%
same,inhibition,[2],< 50%
same,inhibition,[3],< 50%
same,inhibition,[4],< 50%
same,inhibition,[5],< 50%
same,inhibition,[6],< 50%
same,inhibition,[7],< 50%
same,inhibition,[8],< 50%
same,Vd,[9],1.2 L/kg
same,Cmax,[10],2590 ng/mL
same,inhibition,[11],< 50%
same,inhibition,[12],< 50%
same,half-life,[13],2.3 h
same,inhibition,[14],< 50%
same,inhibition,[15],< 50%
same,inhibition,[16],< 50%
same,inhibition,[17],< 50%
same,inhibition,[18],< 50%
same,inhibition,[19],< 50%
same,inhibition,[20],< 50%
same,inhibition,[21],< 50%
same,inhibition,[22],< 50%
same,inhibition,[23],< 50%
same,inhibition,[24],< 50%
same,inhibition,[25],< 50%
same,inhibition,[26],< 50%
same,inhibition,[27],< 50%
same,inhibition,[28],< 50%
same,inhibition,[29],62%
same,inhibition,[30],< 50%
same,inhibition,[31],< 50%
same,AUC(0-inf),[32],7200 ng·h/mL
same,inhibition,[33],< 50%
same,bioavailability,[34],59%
same,inhibition,[35],< 50%
same,AUC(0-inf),[36],2430 ng·h/mL
same,inhibition,[37],< 50%
same,clearance,[38],15.9 mL/min/kg
same,inhibition,[39],< 50%
same,EC50,[40],67.6 nM
same,Activity,[41],Non-toxic
same,inhibition in vivo at 200 mg/kg,[42],63%
same,inhibition,[43],< 50%
same,inhibition,[44],< 50%
same,inhibition,[45],< 50%
